Results reported in patent publication US12390441B2, “Immunomodulating o-het/aryl azalides” (Zoetis Services LLC, priority 2020, dated 2025).
Like-named read-outs stand apart in the source and are kept apart here.

Legend:
P. multocida [1] = test: Murine P. multocida intranasal challenge study, survival; format: in vivo, mice; settings: 5×10^3 CFU/mouse; subcutaneous 18 hours after challenge; tulathromycin 16 mg/kg, M9 32 mg/kg, ceftiofur 9 mg/kg
IL-6 [2] = test: Plasma IL-6 biomarker in bovine M. haemolytica challenge
S. aureus (29213 ATCC) = test: In-vitro MIC model (CLSI broth micro-dilution); format: cell-based; settings: for MIC: Staphylococcus aureus, read-out: Comparative MIC
M. haemolytica = test: In-vitro MIC model (CLSI broth micro-dilution); format: cell-based, Mannheimia haemolytica; settings: for MIC: Mannheimia haemolytica, read-out: Comparative MIC
IL-1β = test: Whole blood assay, LPS stimulation, MSD cytokine detection; format: cell-based, bovine; settings: fresh whole bovine blood, LPS stimulation; drug concentration giving overstimulation (OS) of IL-1β
[3] = system: M. haemolytica (OSU-012103-BHI); settings: inhaled or nasal
P. multocida 46572 = test: In vivo mouse lung infection challenge model (murine); design: species or system CD-1 female mice; settings: 46572, sc, 20 mg/kg, 240 h
Procedure: The challenge organism was P. multocida 46572. Target challenge concentration was 5×10^2 CFU/mouse. Isolated colonies from overnight growth (37° C. with 5% CO2) on trypticase soy agar (TSA II) blood plates were transferred to room temperature Brain Heart Infusion Broth (BHIB). The broth culture was incubated 3.5-4 hours to approximately mid-log phase of growth, as measured by forward light scatter at 600 nm (OD600, 0.200). The culture was centrifuged to collect the bacterial pellet. The pellet was re-suspended in BHIB and adjusted to provide an approximate concentration of 2.7 log^10 colony forming units (CFU) in 0.04 mL at the highest concentration. The challenge inoculum concentration was confirmed by serial dilutions of the inoculum for CFU enumeration. On Day −5, CD-1 female mice were received. Mice were given standard rodent diet and water ad libitum. On Day 0, bacterial inoculum (0.04 mL) was administered to each mouse (n=36) intranasally. Compounds of the invention were dosed at 20 mg/kg (0.1 mL) in a buffered (˜pH 5.4) propylene glycol, monothioglycerol and water solution by subcutaneous injection. Animals were observed from Days 1-10. The study was terminated on Day 10. In addition, some treatment groups were sampled at 6, 24, and 48 hours post bacterial challenge for RNA sequence analysis of lung tissue.
The murine efficacy model (P. multocida challenge) was optimized, and the treatment group size was powered to be able to observe statistically significant improvement of survival to expected ranges for immunomodulatory compounds. The experimental design was a randomized complete block design. Mice were individually identified and treatment groups comingled within a cage, with every treatment group equally represented across cages. Mortality was the primary variable. Mortality data was analyzed using a generalized mixed model with fixed effect of treatment and random effect of block. Survival time was also analyzed using the SAS PHREG (survival analysis) procedure to examine whether there were significant differences between treatment groups and the control group. Numerous compounds of the invention and M9 (positive control) were tested in this model at a dose of 20 mg/kg (Table 3). Typical percent survival for no treatment control is in the range of 0-20% based on study to study variation in challenge inoculum and rate of infection. […] Mouse survival for M9 was about 90-100%, further supporting its residual antibacterial properties against the bacterial strain. Harmonized survival accounts for % survival relative to vehicle (“−” control) and M9 (“+” control)) survival data (Table 3).

TNF-α = test: Whole blood assay, LPS stimulation, MSD cytokine detection; format: cell-based; settings: fresh whole bovine blood
IL-6 [4] = test: as above; format: cell-based; settings: Bos taurus, fresh whole bovine blood
P. multocida [5] = test: In-vitro MIC model (CLSI broth micro-dilution); format: cell-based, Pasteurella multocida; settings: for MIC: Pasteurella multocida, read-out: Comparative MIC
H. somni (A700025K) = test: In-vitro MIC model (CLSI broth micro-dilution); format: cell-based, Histophilus somni
[6] = M. haemolytica 46571, bovine efficacy challenge strain
[7] = P. multocida 46572, murine efficacy challenge strain

In the case of CO/N=C(\C(=O)N[C@@H]1C(=O)N2C(C(=O)O)=C(CSC(=O)c3ccco3)CS[C@H]12)c1csc(N)n1 [ceftiofur], the “Survival at Day 7” value (P. multocida [1]) is reported as about 90%.
With CCCNC[C@]1(O)[C@H](C)O[C@@H](O[C@H]2[C@H](C)[C@@H](O[C@@H]3O[C@H](C)C[C@H](N(C)C)[C@H]3O)[C@](C)(O)C[C@@H](C)CN[C@H](C)[C@@H](O)[C@](C)(O)[C@@H](CC)OC(=O)[C@@H]2C)C[C@@]1(C)OC [tulathromycin, (2R,3S,4R,5R,8R,10R,11R,12S,13S,14R)-11-(((2S,3R,4S,6R)-4-(dimethylamino)-3-hydroxy-6-methyltetrahydro-2H-pyran-2-yl)oxy)-2-ethyl-3,4,10-trihydroxy-13-(((2R,4R,5S,6S)-5-hydroxy-4-methoxy-4,6-dimethyl-5-((propylamino)methyl)tetrahydro-2H-pyran-2-yl)oxy)-3,5,8,10,12,14-hexamethyl-1-oxa-6-azacyclopentadecan-15-one] the IL-6 levels (IL-6 [2]) was “significantly reduced” and the “Survival at Day 7” value (P. multocida [1]) was “about 80%”.
For CCCNC[C@]1(O)[C@H](C)O[C@@H](O[C@H]2[C@H](C)[C@@H](O[C@@H]3O[C@H](C)C[C@H](NC)[C@H]3Oc3ccccc3)[C@](C)(O)C[C@@H](C)CN[C@H](C)[C@@H](O)[C@](C)(O)[C@@H](CC)OC(=O)[C@@H]2C)C[C@@]1(C)OC [Example E-112, (2R,3S,4R,5R,8R,10R,11R,12S,13S,14R)-2-ethyl-3,4,10-trihydroxy-13-(((2R,4R,5S,6S)-5-hydroxy-4-methoxy-4,6-dimethyl-5-((propylamino)methyl)tetrahydro-2H-pyran-2-yl)oxy)-3,5,8,10,12,14-hexamethyl-11-(((2S,3R,4S,6R)-6-methyl-4-(methylamino)-3-phenoxytetrahydro-2H-pyran-2-yl)oxy)-1-oxa-6-azacyclopentadecan-15-one], the MIC (S. aureus (29213 ATCC)) was over 64 µg/mL, the MIC (M. haemolytica; M. haemolytica 12726) was over 64 µg/mL and the MIC (M. haemolytica; M. haemolytica 33396) was over 64 µg/mL. The MIC (M. haemolytica; [6]) was over 64 µg/mL, the “IL-1ß OS of LPS” value (IL-1β) was 80 µM and the lung lesion scores ([3]; 0.01 mg/kg) was 39. For the same molecule, the lung lesion scores ([3]; 0.05 mg/kg) was 41, the lung lesion scores ([3]; 0.1 mg/kg) was 27 and the “% Survival” value (P. multocida 46572) was 53%. It also gave an IC50 (TNF-α; Bos taurus) of 10 µM, an IC50 (IL-6 [4]) of 40 µM and an MIC (P. multocida [5]; P. multocida 43137) of over 64 µg/mL. It also gave an MIC (P. multocida [5]; [7]) of over 64 µg/mL.
In the case of CCCN1C[C@H](C)[C@@H](O)[C@](C)(O)[C@@H](CC)OC(=O)[C@H](C)[C@@H](O[C@H]2C[C@@](C)(OC)[C@@H](O)[C@H](C)O2)[C@H](C)[C@@H](O[C@@H]2O[C@H](C)C[C@H](N(C)C)[C@H]2O)[C@](C)(O)C[C@H]1C [gamithromycin, reference compound], the “MIC, M. haemolytica strains” value (M. haemolytica; screening panel strains) is reported as 0.5 to 1 µg/mL, the “MIC, H. somni strains” value (H. somni (A700025K)) is reported as 0.25 to 8 µg/mL and the “MIC, P. multocida strains” value (P. multocida [5]; screening panel strains) is reported as 1 to 2 µg/mL.
CCCNC[C@]1(O)[C@H](C)O[C@@H](O[C@H]2[C@H](C)[C@@H](O[C@@H]3O[C@H](C)C[C@H](N(C)C(=O)N4CCN(CC)CC4)[C@H]3Oc3ccc(OC)c(OCC)c3)[C@](C)(O)C[C@@H](C)CN[C@H](C)[C@@H](O)[C@](C)(O)[C@@H](CC)OC(=O)[C@@H]2C)C[C@@]1(C)OC [Example G-3] was tested, and the “Comparative MIC” value (S. aureus (29213 ATCC)) was over 64 µg/mL, the “Comparative MIC” value (M. haemolytica; M. haemolytica 12726) was over 64 µg/mL and the “Comparative MIC” value (M. haemolytica; M. haemolytica 33396) was over 64 µg/mL. The “Comparative MIC” value (M. haemolytica; [6]) was over 64 µg/mL, the “Comparative MIC” value (P. multocida [5]; P. multocida 43137) was over 64 µg/mL and the “Comparative MIC” value (P. multocida [5]; [7]) was over 64 µg/mL.
In the case of CC[C@H]1OC(=O)[C@H](C)[C@@H](O)[C@H](C)[C@@H](O[C@@H]2O[C@H](C)C[C@H](NC)[C@H]2Oc2ccc(OC)cc2)[C@](C)(O)C[C@@H](C)CN[C@H](C)[C@@H](O)[C@]1(C)O [Example B-6, (2R,3S,4R,5R,8R,10R,11R,12S,13S,14R)-2-ethyl-3,4,10,13-tetrahydroxy-11-(((2S,3R,4S,6R)-3-(4-methoxyphenoxy)-6-methyl-4-(methylamino)tetrahydro-2H-pyran-2-yl)oxy)-3,5,8,10,12,14-hexamethyl-1-oxa-6-azacyclopentadecan-15-one], the MIC (S. aureus (29213 ATCC)) is reported as over 64 µg/mL, the MIC (M. haemolytica; M. haemolytica 12726) is reported as over 64 µg/mL and the MIC (M. haemolytica; M. haemolytica 33396) is reported as over 64 µg/mL. For the same molecule, the MIC (M. haemolytica; [6]) was over 64 µg/mL, the “% Survival” value (P. multocida 46572) was 1% and the MIC (P. multocida [5]; P. multocida 43137) was over 64 µg/mL. For the same molecule, the MIC (P. multocida [5]; [7]) was over 64 µg/mL.
With CCCNC[C@]1(O)[C@H](C)O[C@@H](O[C@H]2[C@H](C)[C@@H](O[C@@H]3O[C@H](C)C[C@H](NC)[C@H]3Oc3cccc(OCC)c3)[C@](C)(O)C[C@@H](C)CN[C@H](C)[C@@H](O)[C@](C)(O)[C@@H](CC)OC(=O)[C@@H]2C)C[C@@]1(C)OC [Example E-13] the “Comparative MIC” value (S. aureus (29213 ATCC)) was over 64 µg/mL, the “Comparative MIC” value (M. haemolytica; M. haemolytica 12726) was over 64 µg/mL and the “Comparative MIC” value (M. haemolytica; M. haemolytica 33396) was over 64 µg/mL. The “Comparative MIC” value (M. haemolytica; [6]) was over 64 µg/mL, the “IL-1ß OS of LPS” value (IL-1β) was 40 µM and the IC50 (TNF-α) was 30 µM. For the same molecule, the “Comparative MIC” value (P. multocida [5]; P. multocida 43137) was over 64 µg/mL and the “Comparative MIC” value (P. multocida [5]; [7]) was over 64 µg/mL.
